Entries after “also recorded” stand apart in the source; their conditions may differ.
Legend:
Pkd1^RC/RC mice [1] = experiment: Blood pressure (MAP) by tail cuff, CODA non-invasive blood pressure system; format: in vivo; conditions: compared with wild type (WT) animals
Protocol: (§1) One month old Pkd1^RC/RC mice were divided into three groups and started treatment with regular water or regular water supplemented with 1% or 2% betaine (FIG. 2) for 5 months (n=16 per group). All mice were euthanized at 6 months of age, and kidneys harvested. Cystic index was determined from histological sections. 1H-NMR-based metabolomics analysis was performed from tissue urine and plasma samples.
Blood pressure was determined during the same time frame (9-11 am) in all animals in all groups, using the CODA non-invasive blood pressure system (Kent Scientific). Briefly, mice were guided into a plastic mouse holder and were left to acclimate to the holder for 5 minutes. Ten blood pressure (BP) measurements within 10 minutes were obtained by tail cuff.

[2] = 1HNMR spectroscopy of stability of betaine in water; format: physicochemical; conditions: 1% and 2% betaine in water, day 0, day 2 and day 8 (course of one week)
From the text: FIG. 2: ^1HNMR spectroscopy depicting stability of betaine in water during the course of 1 week. Three spectral lines on top indicating 2% betaine represent betaine concentration as determined by ^1HNMR spectroscopy at day 0, day, 2 and day 8. Below, three spectral lines indicating 1% betaine represent betaine concentration as determined by ^1HNMR spectroscopy at day 0, day, 2 and day 8. At the bottom, flat spectra can be seen for the animals receiving control water without betaine, indicated as control day 2 and 8. Overall, betaine was stable and non-significant changes in betaine concentration were observed during the course of one week.

Pkd1^RC/RC mice [3] = experiment: Betaine supplementation in drinking water in Pkd1^RC/RC mice: kidney/body weight and cystic index from histological sections; format: in vivo; conditions: p<0.01; for kidney/body weight: euthanized at 6 months of age, no betaine 2.25; for cystic index (percentage of cyst area within the total kidney section): no betaine 21.1%
Protocol: as §1

[4] = 1H-NMR-based analysis of plasma and tissue betaine concentration after betaine supplementation; format: in vivo; conditions: Pkd1^RC/RC mice, vs no betaine, p<0.001; for tissue betaine concentration: kidney tissue
Protocol: as §1

Pkd1^RC/RC mice [5] = experiment: Intrarenal microvasculature quantified using a capillary index; format: in vivo; conditions: 6 months of age
Protocol: as §1
Intrarenal microvasculature was quantified using a capillary index. Capillaries in the cortex were identified by the presence of lumen, red blood cells, and/or an endothelial cell lining. For the PKD animals, the number of capillaries is calculated adjusting for the cystic area.

[6] = 1% betaine in drinking water for 5 months
[7] = 2% betaine in drinking water for 5 months

stability of betaine in water (betaine concentration) [2]: stable
plasma betaine concentration ([4]; 1% betaine in drinking water): increased
plasma betaine concentration ([4]; 2% betaine in drinking water): increased
SMILES: C[N+](C)(C)CC(=O)[O-] [betaine, trimethylglycine]
Mean Arterial Pressure (MAP) (Pkd1^RC/RC mice [1]; 1% betaine): preserved MAP within WT levels
Mean Arterial Pressure (MAP) (Pkd1^RC/RC mice [1]; 2% betaine): preserved MAP within WT levels
kidney/body weight (Pkd1^RC/RC mice [3]; [6]): 1.82
cystic index (percentage of cyst area within the total kidney section) (Pkd1^RC/RC mice [3]; [6]): 11.1%
kidney/body weight (Pkd1^RC/RC mice [3]; [7]): 1.85
cystic index (percentage of cyst area within the total kidney section) (Pkd1^RC/RC mice [3]; [7]): 9.4%
tissue betaine concentration ([4]; 1% betaine in drinking water): significant increases; also recorded: increased
tissue betaine concentration ([4]; 2% betaine in drinking water): significant increases; also recorded: increased
capillary count (intrarenal microvasculature) (Pkd1^RC/RC mice [5]; 1% betaine, female animals): not effective
capillary count (intrarenal microvasculature) (Pkd1^RC/RC mice [5]; 1% betaine, male animals): preserved the capillary count
capillary count (intrarenal microvasculature) (Pkd1^RC/RC mice [5]; 2% betaine, female animals): preserved capillary count
capillary count (intrarenal microvasculature) (Pkd1^RC/RC mice [5]; 2% betaine, male animals): preserved the capillary count
